According to patent publication US8389679B2, “Targeted antimicrobial moieties” (priority 2009, dated 2013):
“Also recorded” adds a separate entry of the source.

System: target microorganisms
Assay: Screen of synthesized peptides for binding to target microorganisms (targeting peptides, Tables 2 and 3)
Conditions: microorganism(s) the targeting peptide was identified as binding to (Table 3)
Procedure: Once noted, these peptides were batch synthesized on a multiplex peptide synthesizer, yielding 5-10 mg of each peptide that could readily be screened for biological activity (e.g., binding activity and/or antimicrobial activity.
Other suitable targeting peptides include the peptides that have been identified as binding to particular target organisms as shown in Table 3 and/or Table 4.

Substance: 1T-94 (DQVAHSGDMLVQARRRDS; synthetic novel tartgeting peptide IT-94)
- Target(s): S. mitis, S. mutans, S. oralis

Substance: 1T-95 (GHLLRVGGRVGGVGGVAGACAQPFGGQ; synthetic novel tartgeting peptide IT-95)
- Target(s): S. gordonii, S. mitis, S. mutans,; also recorded: S. oralis, S. sanguinis

Substance: 1T-96 (VAGACAQPFGGQ; synthetic novel tartgeting peptide IT-96)
- Target(s): S. gordonii, S. mitis, S. mutans,; also recorded: S. oralis, S. sanguinis

Substance: 1T-97 (GVAERNLDRITVAVAIIWTITIVGLGLVAKLG; synthetic novel tartgeting peptide IT-97)
- Target(s): A. naeslundii, F. nucleatum,; also recorded: P. gingivalis; also recorded: S. epidermidis,; also recorded: S. gordonii, S. mitis, S. mutans,; also recorded: S. oralis, S. salivarious,; also recorded: S. sanguinis

Substance: 1T-98 (VRSAKAVKALTAAGYTGELVNVSGGMKAWLGQ; synthetic novel tartgeting peptide IT-98)
- Target(s): A. naeslundii, F. nucleatum,; also recorded: P. gingivalis; also recorded: S. epidermidis,; also recorded: S. gordonii, S. mitis, S. mutans,; also recorded: S. oralis, S. salivarious,; also recorded: S. sanguinis

Substance: 1T-99 (MKAWLGQ; synthetic novel tartgeting peptide IT-99)
- Target(s): S. gordonii, S. mitis, S. mutans,; also recorded: S. oralis, S. sanguinis

Substance: 1T-100 (LDPLEPRIAPPGDRSHQGAPACHRDPLRGRSARDAER; synthetic novel tartgeting peptide IT-100)
- Target(s): S. gordonii, S. mitis, S. mutans

Substance: 1T-101 (RLRVGRATDLPLTSFAVGVVRNLPDAPAH; synthetic novel tartgeting peptide IT-101)
- Target(s): A. naeslundii, P. gingivalis; also recorded: S. epidermidis,; also recorded: S. gordonii, S. mitis, S. mutans,; also recorded: S. oralis, S. sanguinis

Substance: 1T-102 (WKRLWPARILAGHSRRRMRWMVVWRYFAAT; synthetic novel tartgeting peptide IT-102)
- Target(s): A. naeslundii, F. nucleatum,; also recorded: P. gingivalis; also recorded: S. epidermidis,; also recorded: S. gordonii, S. mitis, S. mutans,; also recorded: S. oralis, S. salivarious,; also recorded: S. sanguinis

Substance: 1T-103 (AQFYEAIITGYALGAGQRIGQL; synthetic novel tartgeting peptide IT-103)
- Target(s): A. naeslundii, F. nucleatum,; also recorded: P. gingivalis; also recorded: S. epidermidis,; also recorded: S. gordonii, S. mitis, S. mutans,; also recorded: S. oralis, S. sanguinis

Substance: 1T-104 (RAVAAHLQGRHHGHQVRRQRHGQR; synthetic novel tartgeting peptide IT-104)
- Target(s): S. mitis

Substance: 1T-105 (GEGLPPPVLHLPPPRMSGR; synthetic novel tartgeting peptide IT-105)
- Target(s): S. epidermidis, S. gordonii,; also recorded: S. mitis, S. mutans,; also recorded: S. oralis

Substance: 1T-106 (DALRRSRSQGRRHR; synthetic novel tartgeting peptide IT-106)
- Target(s): S. gordonii, S. mitis, S. mutans,; also recorded: S. oralis, S. salivarious

Substance: 1T-107 (SPVPRFTAVGGVSRGSP; synthetic novel tartgeting peptide IT-107)
- Target(s): A. naeslundiiS. epidermidis,; also recorded: S. gordonii,; also recorded: S. mitis, S. mutans, S. oralis,; also recorded: S. salivarious, S. sanguinis

Substance: 1T-108 (WGPLGPERPLW; synthetic novel tartgeting peptide IT-108)
- Target(s): S. gordonii, S. mitis, S. mutans,; also recorded: S. oralis, S. salivarious,; also recorded: S. sanguinis

Substance: 1T-109 (VTTNVRQGAGS; synthetic novel tartgeting peptide IT-109)
- Target(s): A. naeslundiiS. epidermidis,; also recorded: S. gordonii,; also recorded: S. mitis, S. mutans, S. oralis,; also recorded: S. salivarious, S. sanguinis

Substance: 1T-110 (LAAKTAVCVGRAFM; synthetic novel tartgeting peptide IT-110)
- Target(s): A. naeslundii, P. gingivalis; also recorded: S. epidermidis,; also recorded: S. gordonii, S. mitis, S. mutans,; also recorded: S. oralis, S. sanguinis

Substance: 1T-111 (GRLSRREEDPATSIILLRGAYRMAVF; synthetic novel tartgeting peptide IT-111)
- Target(s): A. naeslundii, F. nucleatum,; also recorded: P. gingivalis; also recorded: S. epidermidis,; also recorded: S. gordonii, S. mitis, S. mutans,; also recorded: S. oralis, S. salivarious,; also recorded: S. sanguinis

Substance: 1T-112 (SDNDGKLILGTSQ; synthetic novel tartgeting peptide IT-112)
- Target(s): S. gordonii

Substance: 1T-113 (HGAHQRTGQRLHHHRGRTVSGCRQNPVAGVDPDEHR; synthetic novel tartgeting peptide IT-113)
- Target(s): S. mitis

Substance: 1T-114 (RQAPGPGLVTITAACSAPGSRSR; synthetic novel tartgeting peptide IT-114)
- Target(s): A. naeslundii, P. gingivalis; also recorded: S. epidermidis,; also recorded: S. gordonii, S. mitis, S. mutans,; also recorded: S. oralis, S. sanguinis

Substance: 1T-115 (LLIERFSNHH; synthetic novel tartgeting peptide IT-115)
- Target(s): A. naeslundii, F. nucleatum,; also recorded: P. gingivalis; also recorded: S. epidermidis,; also recorded: S. gordonii, S. mitis, S. mutans,; also recorded: S. oralis, S. salivarious,; also recorded: S. sanguinis

Substance: 1T-116 (MILHRRRDR; synthetic novel tartgeting peptide IT-116)
- Target(s): A. naeslundii, P. gingivalis; also recorded: S. epidermidis,; also recorded: S. gordonii, S. mitis, S. mutans,; also recorded: S. oralis, S. salivarious,; also recorded: S. sanguinis

Substance: 1T-117 (GPGVVGPAPFSRLPAHALNL; synthetic novel tartgeting peptide IT-117)
- Target(s): S. mutans

Substance: 1T-118 (TASPPAPSDQGLRTAFPATLLIALAALARISR; synthetic novel tartgeting peptide IT-118)
- Target(s): A. naeslundii, F. nucleatum,; also recorded: P. gingivalis; also recorded: S. epidermidis,; also recorded: S. gordonii, S. mitis, S. mutans,; also recorded: S. oralis, S. salivarious,; also recorded: S. sanguinis

Substance: 1T-119 (SPATQKAPTRAQPSRAPVQDCGDGRPTAAPDDVERLSPR; synthetic novel tartgeting peptide IT-119)
- Target(s): S. gordonii, S. mitis, S. mutans,; also recorded: S. oralis

Substance: 1T-120 (DVRDRVDLAGADLCAAHATR; synthetic novel tartgeting peptide IT-120)
- Target(s): A. naeslundii, F. nucleatum,; also recorded: P. gingivalis; also recorded: S. epidermidis,; also recorded: S. gordonii, S. mitis, S. mutans,; also recorded: S. oralis, S. salivarious,; also recorded: S. sanguinis

Substance: 1T-121 (FAKETGFGIGGAQEGWWIIADIYGPNPF; synthetic novel tartgeting peptide IT-121)
- Target(s): S. gordonii, S. mitis, S. mutans,; also recorded: S. oralis, S. salivarious,; also recorded: S. sanguinis

Substance: 1T-122 (GAIPDPVTHRVDWEEDHQTRPSR; synthetic novel tartgeting peptide IT-122)
- Target(s): S. mitis

Substance: 1T-123 (LVRRNAVAGRSDGLAGAEQLDLVRLQGVL; synthetic novel tartgeting peptide IT-123)
- Target(s): S. gordonii

Substance: 1T-124 (LFDERNKIA; synthetic novel tartgeting peptide IT-124)
- Target(s): S. mitis, S. mutans, S. oralis

Substance: 1T-125 (DAITGGNPPLSDTDGLRP; synthetic novel tartgeting peptide IT-125)
- Target(s): S. epidermidis, S. gordonii,; also recorded: S. mutans, S. oralis

Substance: 1T-126 (QGLARPVLRRIPL; synthetic novel tartgeting peptide IT-126)
- Target(s): S. gordonii, S. mitis, S. mutans

Substance: 1T-127 (YDPVPKRKNKNSEGKREE; synthetic novel tartgeting peptide IT-127)
- Target(s): A. naeslundii, F. nucleatum,; also recorded: P. gingivalis,; also recorded: T. denticolaS. gordonii,; also recorded: S. mitis, S. mutans, S. oralis,; also recorded: S. salivarious, S. sanguinis

Substance: 1T-128 (SGSAIRMLEIATKMLKR; synthetic novel tartgeting peptide IT-128)
- Target(s): A. naeslundii, P. gingivalis; also recorded: S. epidermidis,; also recorded: S. gordonii, S. mitis, S. mutans,; also recorded: S. oralis, S. salivarious,; also recorded: S. sanguinis

Substance: 1T-129 (YDKYIKYLSIQPPFIVYFI; synthetic novel tartgeting peptide IT-129)
- Target(s): A. naeslundii, P. gingivalis; also recorded: S. epidermidis,; also recorded: S. gordonii, S. mitis, S. mutans,; also recorded: S. oralis, S. salivarious,; also recorded: S. sanguinis

Substance: 1T-130 (QKIIDMSKFLFSLILFIMIVVIYIGKSIGGYSAIVSSIMLELDTVLYNKKIFFIYK; synthetic novel tartgeting peptide IT-130)
- Target(s): A. naeslundii, F. nucleatum,; also recorded: P. gingivalis; also recorded: S. epidermidis,; also recorded: S. gordonii, S. mitis, S. mutans,; also recorded: S. oralis, S. salivarious,; also recorded: S. sanguinis

Substance: 1T-131 (DEVWKMLGI; synthetic novel tartgeting peptide IT-131)
- Target(s): A. naeslundii, F. nucleatum,; also recorded: P. gingivalis,; also recorded: T. denticolaS. gordonii,; also recorded: S. mitis, S. mutans, S. oralis,; also recorded: S. salivarious, S. sanguinis

Substance: 1T-132 (YSKKLFEYFYFIIFILIRYLIFYKIIQNKNYYINNIAYN; synthetic novel tartgeting peptide IT-132)
- Target(s): A. naeslundii, F. nucleatum,; also recorded: P. gingivalis; also recorded: S. epidermidis,; also recorded: S. gordonii, S. mitis, S. mutans,; also recorded: S. oralis, S. salivarious,; also recorded: S. sanguinis

Substance: 1T-133 (YFIKDDNEALSKDWEVIGNDLKGTIDKYGKEFKVR; synthetic novel tartgeting peptide IT-133)
- Target(s): A. naeslundii, P. gingivalis; also recorded: S. epidermidis,; also recorded: S. gordonii, S. mitis, S. mutans,; also recorded: S. oralis, S. salivarious,; also recorded: S. sanguinis

Substance: 1T-134 (SRLVREIKKKCRKS; synthetic novel tartgeting peptide IT-134)
- Target(s): A. naeslundii, F. nucleatum,; also recorded: P. gingivalis; also recorded: S. epidermidis,; also recorded: S. gordonii, S. mitis, S. mutans,; also recorded: S. oralis, S. salivarious,; also recorded: S. sanguinis
